Reference: patent US20040018579A1, “Dye-labelled peptide and method” (priority 2000, published 2004)
No end group written: not given here. Cy5Q = cyanine dye quencher coupled to the N-terminus (from Cy5Q-NHS)

Tested on: AspN
Experiment: Endoproteinase AspN cleavage assay
Format: biochemical
Settings: 2 μM, 500 μl, AspN 100 ng, overnight at ambient temperature, excitation 520 nm, emission 540-750 nm
Procedure: The fluorescence intensity of compound A (2 μM, 500 μl volume) in a quartz cuvette was recorded using a spectrofluorimeter. The sample was excited at 520 nm and emission over 540-750 nm recorded. AspN (100 ng, 50 μl volume) was added to the sample in the cuvette, which was stoppered, and kept dark at ambient temperature overnight. The fluorescence intensity was again recorded. […] Tween™ is a trademark of ICI Americas, Inc.

With “Cy5Q -Asp-Glu-Val-Asp-Arg-Ser-Gly-Ser-Gly-Ser-Cy3-Ala-Leu-Thr-OH (Cy5Q-DEVDRSGSGS; not fully specified (C-terminus)) [Compound A]” the “Cy3 fluorescence on AspN-catalysed hydrolysis” value was “increase in Cy3 fluorescence”.
